Measured values from ChEMBL document CHEMBL1687846, “Ex vivo activity of histone deacetylase inhibitors against multidrug-resistant clinical isolates of Plasmodium falciparum and P. vivax” (Antimicrob Agents Chemother, 2011).
pIC50: −log10 of the molar value.

Experiments:
Plasmodium vivax [1] = assay: Antimalarial activity against trophozoites stage of Plasmodium vivax assessed as parasites growth inhibition using giemsa staining after 24 to 56 hrs by microscopic analysis in presence of 20% human serum; type: functional, organism-based
Plasmodium vivax [2] = assay: Antimalarial activity against ring stage of Plasmodium vivax assessed as parasites growth inhibition using giemsa staining after 24 to 56 hrs by microscopic analysis in presence of 20% human serum; type: functional, organism-based
Plasmodium falciparum [3] = assay: Antimalarial activity against trophozoites stage of Plasmodium falciparum assessed as parasites growth inhibition using giemsa staining after 24 to 56 hrs by microscopic analysis in presence of 10% human serum; type: functional, organism-based
Plasmodium falciparum [4] = assay: Antimalarial activity against ring stage of Plasmodium falciparum assessed as parasites growth inhibition using giemsa staining after 24 to 56 hrs by microscopic analysis in presence of 10% human serum; type: functional, organism-based
Plasmodium vivax [5] = assay: Antimalarial activity against Plasmodium vivax assessed as parasites growth inhibition using giemsa staining after 24 to 56 hrs by microscopic analysis in presence of 20% human serum; type: functional, organism-based
Plasmodium falciparum [6] = assay: Antimalarial activity against Plasmodium falciparum assessed as parasites growth inhibition using giemsa staining after 24 to 56 hrs by microscopic analysis in presence of 10% human serum; type: functional, organism-based
Plasmodium falciparum [7] = assay: Antimalarial activity against chloroquine-sensitive Plasmodium falciparum 3D7 assessed as inhibition of [3H]hypoxanthine incorporation; type: functional, organism-based
Plasmodium falciparum [8] = assay: microbe, parasite or virus in culture; details: K1, 3 h
Description: Antimalarial activity against chloroquine-resistant Plasmodium falciparum K1 assessed as inhibition of [3H]hypoxanthine incorporation

Compound O=C(/C=C/c1ccccc1)N[C@@H](CCCCCC(=O)NO)C(=O)Nc1cccc2cccnc12 has a pIC50 (Plasmodium vivax [1]) of 6.36, a pIC50 (Plasmodium vivax [2]) of 6.26 and a pIC50 (Plasmodium falciparum [3]) of 6.28. It also gave a pIC50 (Plasmodium falciparum [4]) of 6.31, a pIC50 (Plasmodium vivax [5]) of 6.30 and a pIC50 (Plasmodium falciparum [6]) of 6.27.
Work on O=C(CCCCC[C@H](NC(=O)c1cc2ccccc2[nH]1)C(=O)Nc1cccc2cccnc12)NO yielded a pIC50 (Plasmodium vivax [1]) of 6.67, a pIC50 (Plasmodium vivax [2]) of 6.49 and a pIC50 (Plasmodium falciparum [3]) of 6.33. The pIC50 (Plasmodium falciparum [4]) was 6.62, the pIC50 (Plasmodium vivax [5]) was 6.56 and the pIC50 (Plasmodium falciparum [6]) was 6.58.
C[C@H]1[C@H](OC(=O)CCC(=O)O)O[C@@H]2O[C@@]3(C)CC[C@H]4[C@H](C)CC[C@@H]1[C@@]24OO3 [ARTESUNATE] showed a pIC50 (Plasmodium vivax [1]) of 9.41, a pIC50 (Plasmodium vivax [2]) of 9.12 and a pIC50 (Plasmodium falciparum [3]) of 8.92. It also gave a pIC50 (Plasmodium falciparum [4]) of 9.06, a pIC50 (Plasmodium vivax [5]) of 9.13 and a pIC50 (Plasmodium falciparum [6]) of 9.04. The pIC50 (Plasmodium falciparum [7]) was 8.70 and the pIC50 (Plasmodium falciparum [8]) was 9.00.
For CCN(CC)Cc1cc(Nc2ccnc3cc(Cl)ccc23)ccc1O, the pIC50 (Plasmodium vivax [1]) was 7.68, the pIC50 (Plasmodium falciparum [3]) was 8.02 and the pIC50 (Plasmodium vivax [5]) was 8.04. The pIC50 (Plasmodium falciparum [6]) was 8.30 and the pIC50 (Plasmodium falciparum [7]) was 8.70.
For OC(c1cc(C(F)(F)F)nc2c(C(F)(F)F)cccc12)C1CCCCN1 (configuration not stated) [MEFLOQUINE], the pIC50 (Plasmodium vivax [1]) was 7.99, the pIC50 (Plasmodium vivax [2]) was 8.04 and the pIC50 (Plasmodium vivax [5]) was 8.11. For the same compound, the pIC50 (Plasmodium falciparum [6]) was 8.20.
Work on Clc1ccc2c(N3CCN(CCCN4CCN(c5ccnc6cc(Cl)ccc56)CC4)CC3)ccnc2c1 [PIPERAQUINE] yielded a pIC50 (Plasmodium vivax [1]) of 7.80, a pIC50 (Plasmodium vivax [2]) of 7.81 and a pIC50 (Plasmodium vivax [5]) of 7.88. It also gave a pIC50 (Plasmodium falciparum [6]) of 7.97, a pIC50 (Plasmodium falciparum [7]) of 8.52 and a pIC50 (Plasmodium falciparum [8]) of 7.96.
CCN(CC)CCCC(C)Nc1ccnc2cc(Cl)ccc12 (configuration not stated) [CHLOROQUINE] was tested, and the pIC50 (Plasmodium vivax [1]) was 6.07 and the pIC50 (Plasmodium vivax [5]) was 7.39.
